For assay [1], the system named is Streptococcus pneumoniae. Kind of assay: Antibacterial activity against efflux-resistant Streptococcus pneumoniae B0326 by agar microdilution method. It counts as functional.
Another assay has as its system Haemophilus influenzae. Kind of assay: Antibacterial activity against Haemophilus influenzae B0529 by agar microdilution method. In kind it is functional.
Assay [2] relates to Staphylococcus aureus. The assay is described as follows: Antibacterial activity against efflux-resistant Staphylococcus aureus B0331 by agar microdilution method. It counts as functional.
Assay [3] concerns Streptococcus pyogenes. The assay is described as follows: Antibacterial activity against inducible macrolide-lincosamide-streptogramin B-resistant Streptococcus pyogenes B0543 by agar microdilution method. In kind it is functional.
Assay [4] concerns Staphylococcus aureus. Kind of assay: Antibacterial activity against inducible macrolide-lincosamide-streptogramin B-resistant Staphylococcus aureus B0538 by agar microdilution method. In kind it is functional.
In assay [5] the test system is Streptococcus pyogenes. The assay is described as follows: Antibacterial activity against erythromycin A-susceptible Streptococcus pyogenes B0542 by agar microdilution method.
The next assay concerns Moraxella catarrhalis. Kind of assay: Antibacterial activity against Moraxella catarrhalis B0324 by agar microdilution method. It counts as functional.
Assay [6] concerns Staphylococcus aureus. Kind of assay: Antibacterial activity against constitutive macrolide-lincosamide-streptogramin B-resistant Staphylococcus aureus B0330 by agar microdilution method. It counts as functional.
For assay [7], the system named is Streptococcus pneumoniae. The assay is described as follows: Antibacterial activity against constitutive macrolide-lincosamide-streptogramin B-resistant Streptococcus pneumoniae B0627 by agar microdilution method. It counts as functional.
In assay [8] the test system is Streptococcus pyogenes. The assay is described as follows: Antibacterial activity against efflux-resistant Streptococcus pyogenes B0545 by agar microdilution method. In kind it is functional.
Assay [9] deals with Streptococcus pneumoniae. Kind of assay: Antibacterial activity against erythromycin-susceptible Streptococcus pneumoniae B0541 by agar microdilution method.
Assay [10] deals with Staphylococcus aureus. The assay is described as follows: Antibacterial activity against erythromycin A-susceptible Staphylococcus aureus B0329 by agar microdilution method.
Assay [11] has as its system Streptococcus pyogenes. Kind of assay: Antibacterial activity against constitutive macrolide-lincosamide-streptogramin B-resistant Streptococcus pyogenes B0544 by agar microdilution method. It counts as functional.

≈ marks a conversion by molar mass, not a printed value. Some results are limits rather than exact numbers.

As to `CC[C@H]1OC(=O)[C@H](C)C(=O)[C@H](C)[C@@H](O[C@@H]2O[C@H](C)C[C@H](N(C)C)[C@H]2O)[C@](C)(OCC(O)CNCc2cnc3ccccc3c2)C[C@@H](C)NC(=O)[C@H](C)[C@@H](O)[C@]1(C)O` (mixture of isomers), the MIC with Streptococcus pneumoniae [1] was 4 µg/mL; against Haemophilus influenzae it was 4 µg/mL; with Staphylococcus aureus [2] it was 0.5 µg/mL; in the assay on Streptococcus pyogenes [3] it was 4 µg/mL; in the assay on Staphylococcus aureus [4], 2 µg/mL; in the assay with Streptococcus pyogenes [5], at most 0.125 µg/mL. Further, the MIC in the assay with Moraxella catarrhalis is 2 µg/mL; against Staphylococcus aureus [6], over 64 µg/mL; in the assay on Streptococcus pneumoniae [7], 8 µg/mL; in the assay on Streptococcus pyogenes [8] it was 8 µg/mL; against Streptococcus pneumoniae [9], at most 0.125 µg/mL; in the assay with Staphylococcus aureus [10], 1 µg/mL. Besides, the MIC with Streptococcus pyogenes [11] was 8 µg/mL.
As to `CCOc1ccccc1N1CCN(CC(O)CO[C@]2(C)C[C@@H](C)NC(=O)[C@H](C)[C@@H](O)[C@](C)(O)[C@@H](CC)OC(=O)[C@H](C)C(=O)[C@H](C)[C@H]2O[C@@H]2O[C@H](C)C[C@H](N(C)C)[C@H]2O)CC1` (mixture of isomers), the MIC against Streptococcus pneumoniae [1] was 8 µg/mL; against Haemophilus influenzae it was 32 µg/mL; with Staphylococcus aureus [2], 4 µg/mL; against Streptococcus pyogenes [3], 8 µg/mL; with Staphylococcus aureus [4] it was 2 µg/mL; against Streptococcus pyogenes [5], at most 0.125 µg/mL. Also, the MIC is 2 µg/mL in the assay with Moraxella catarrhalis; over 64 µg/mL with Staphylococcus aureus [6]; 16 µg/mL in the assay on Streptococcus pneumoniae [7]; 4 µg/mL with Streptococcus pyogenes [8]; 0.5 µg/mL in the assay on Streptococcus pneumoniae [9]; 2 µg/mL in the assay on Staphylococcus aureus [10]. For the same compound, the MIC with Streptococcus pyogenes [11] was determined as 16 µg/mL.
On to `CC[C@H]1OC(=O)[C@H](C)C(=O)[C@H](C)[C@@H](O[C@@H]2O[C@H](C)C[C@H](N(C)C)[C@H]2O)[C@](C)(OCC(O)CN2CCN(c3ccc(C(C)=O)cc3)CC2)C[C@@H](C)NC(=O)[C@H](C)[C@@H](O)[C@]1(C)O` (mixture of isomers), for which the MIC against Streptococcus pneumoniae [1] came to 2 µg/mL; in the assay on Haemophilus influenzae, 16 µg/mL; in the assay with Staphylococcus aureus [2], 2 µg/mL; in the assay with Streptococcus pyogenes [3], 8 µg/mL; against Staphylococcus aureus [4], 4 µg/mL; with Streptococcus pyogenes [5], 0.5 µg/mL. For the same compound, the MIC was 4 µg/mL against Moraxella catarrhalis; over 64 µg/mL in the assay on Staphylococcus aureus [6]; 32 µg/mL in the assay with Streptococcus pneumoniae [7]; 4 µg/mL with Streptococcus pyogenes [8]; 1 µg/mL in the assay on Streptococcus pneumoniae [9]; 2 µg/mL in the assay with Staphylococcus aureus [10]. In the assay on Streptococcus pyogenes [11], this compound registered an MIC of 32 µg/mL.
`CC[C@H]1OC(=O)[C@H](C)C(=O)[C@H](C)[C@@H](O[C@@H]2O[C@H](C)C[C@H](N(C)C)[C@H]2O)[C@](C)(OCC(O)CN2CCN(c3cnc4ccccc4c3)CC2)C[C@@H](C)NC(=O)[C@H](C)[C@@H](O)[C@]1(C)O` (stereo not given in full): the MIC was 1 µg/mL (≈ 1.17 µM) with Streptococcus pneumoniae [1]; 8 µg/mL (≈ 9.32 µM) against Haemophilus influenzae; 0.5 µg/mL (≈ 0.583 µM) against Staphylococcus aureus [2]; 8 µg/mL (≈ 9.32 µM) with Streptococcus pyogenes [3]; 2 µg/mL (≈ 2.33 µM) against Staphylococcus aureus [4]; at most 0.125 µg/mL against Streptococcus pyogenes [5]. Further, the MIC against Moraxella catarrhalis is 4 µg/mL (≈ 4.66 µM); in the assay on Staphylococcus aureus [6] it was over 64 µg/mL; against Streptococcus pneumoniae [7], 4 µg/mL (≈ 4.66 µM); with Streptococcus pyogenes [8], 4 µg/mL (≈ 4.66 µM); against Streptococcus pneumoniae [9], at most 0.125 µg/mL; against Staphylococcus aureus [10], 1 µg/mL (≈ 1.17 µM). The compound further showed an MIC in the assay on Streptococcus pyogenes [11] of 32 µg/mL (≈ 37.3 µM).
As to `CC[C@H]1OC(=O)[C@H](C)C(=O)[C@H](C)[C@@H](O[C@@H]2O[C@H](C)C[C@H](N(C)C)[C@H]2O)[C@](C)(OCC(O)CNCCc2ccc([N+](=O)[O-])cc2)C[C@@H](C)NC(=O)[C@H](C)[C@@H](O)[C@]1(C)O` (mixture of isomers), the MIC with Streptococcus pneumoniae [1] is 0.5 µg/mL; in the assay on Haemophilus influenzae it was 1 µg/mL; in the assay on Staphylococcus aureus [2] it was 1 µg/mL; in the assay with Streptococcus pyogenes [3], 0.25 µg/mL; in the assay on Staphylococcus aureus [4] it was 1 µg/mL; in the assay on Streptococcus pyogenes [5], at most 0.125 µg/mL. Also, the MIC against Moraxella catarrhalis is at most 0.125 µg/mL; against Staphylococcus aureus [6] it was over 64 µg/mL; against Streptococcus pneumoniae [7] it was at most 0.125 µg/mL; with Streptococcus pyogenes [8], 0.25 µg/mL; against Streptococcus pneumoniae [9], at most 0.125 µg/mL; against Staphylococcus aureus [10] it was at most 0.125 µg/mL. In the assay on Streptococcus pyogenes [11], this compound registered an MIC of 1 µg/mL.
In the case of `CC[C@H]1OC(=O)[C@H](C)C(=O)[C@H](C)[C@@H](O[C@@H]2O[C@H](C)C[C@H](N(C)C)[C@H]2O)[C@](C)(OCC(O)CNc2ccc3ncccc3c2)C[C@@H](C)NC(=O)[C@H](C)[C@@H](O)[C@]1(C)O` (stereo not given in full), the MIC is 1 µg/mL (≈ 1.27 µM) with Streptococcus pneumoniae [1]; 0.5 µg/mL (≈ 0.634 µM) against Haemophilus influenzae; 0.25 µg/mL (≈ 0.317 µM) against Staphylococcus aureus [2]; 2 µg/mL (≈ 2.53 µM) against Streptococcus pyogenes [3]; 2 µg/mL (≈ 2.53 µM) with Staphylococcus aureus [4]; at most 0.125 µg/mL in the assay with Streptococcus pyogenes [5]. Besides, the MIC is 1 µg/mL (≈ 1.27 µM) in the assay on Moraxella catarrhalis; over 64 µg/mL against Staphylococcus aureus [6]; 2 µg/mL (≈ 2.53 µM) in the assay with Streptococcus pneumoniae [7]; 4 µg/mL (≈ 5.07 µM) in the assay on Streptococcus pyogenes [8]; at most 0.125 µg/mL in the assay on Streptococcus pneumoniae [9]; 1 µg/mL (≈ 1.27 µM) in the assay with Staphylococcus aureus [10]. The compound also had an MIC in the assay with Streptococcus pyogenes [11] of 8 µg/mL (≈ 10.1 µM).
Turning to `CC[C@H]1OC(=O)[C@H](C)C(=O)[C@H](C)[C@@H](O[C@@H]2O[C@H](C)C[C@H](N(C)C)[C@H]2O)[C@](C)(OC)C[C@@H](C)C(=O)[C@H](C)[C@H]2N(CCCCn3cnc(-c4cccnc4)c3)C(=O)O[C@]12C` [TELITHROMYCIN], the MIC in the assay on Streptococcus pneumoniae [1] was 0.5 µg/mL (≈ 0.616 µM); in the assay with Haemophilus influenzae, 1 µg/mL (≈ 1.23 µM); against Staphylococcus aureus [2] it was 0.25 µg/mL (≈ 0.308 µM); against Streptococcus pyogenes [3] it was at most 0.06 µg/mL; in the assay on Staphylococcus aureus [4], 0.5 µg/mL (≈ 0.616 µM); with Streptococcus pyogenes [5] it was at most 0.06 µg/mL. The MIC is at most 0.125 µg/mL in the assay on Moraxella catarrhalis; over 64 µg/mL with Staphylococcus aureus [6]; at most 0.125 µg/mL against Streptococcus pneumoniae [7]; 0.25 µg/mL (≈ 0.308 µM) against Streptococcus pyogenes [8]; at most 0.06 µg/mL against Streptococcus pneumoniae [9]; at most 0.125 µg/mL against Staphylococcus aureus [10]. In addition, the MIC in the assay with Streptococcus pyogenes [11] stood at 4 µg/mL (≈ 4.93 µM).
With `CC[C@H]1OC(=O)[C@H](C)C(=O)[C@H](C)[C@@H](O[C@@H]2O[C@H](C)C[C@H](N(C)C)[C@H]2O)[C@](C)(OCC2CO2)C[C@@H](C)NC(=O)[C@H](C)[C@@H](O)[C@]1(C)O` (stereo not given in full), the MIC against Streptococcus pneumoniae [1] was 8 µg/mL (≈ 12.4 µM); against Haemophilus influenzae, 32 µg/mL (≈ 49.6 µM); against Staphylococcus aureus [2], 16 µg/mL (≈ 24.8 µM); against Streptococcus pyogenes [3], over 64 µg/mL; in the assay with Staphylococcus aureus [4], over 64 µg/mL; with Streptococcus pyogenes [5] it was 4 µg/mL (≈ 6.2 µM). The MIC against Moraxella catarrhalis was 16 µg/mL (≈ 24.8 µM); in the assay on Staphylococcus aureus [6] it was over 64 µg/mL; with Streptococcus pneumoniae [7], over 64 µg/mL; with Streptococcus pyogenes [8] it was 8 µg/mL (≈ 12.4 µM); against Streptococcus pneumoniae [9], 2 µg/mL (≈ 3.1 µM); in the assay on Staphylococcus aureus [10], 4 µg/mL (≈ 6.2 µM). In the assay on Streptococcus pyogenes [11], this compound yielded an MIC of over 64 µg/mL.
`CC[C@H]1OC(=O)[C@H](C)C(=O)[C@H](C)[C@@H](O[C@@H]2O[C@H](C)C[C@H](N(C)C)[C@H]2O)[C@](C)(OCC(O)CNCCc2ccccn2)C[C@@H](C)NC(=O)[C@H](C)[C@@H](O)[C@]1(C)O` (mixture of isomers): the MIC against Streptococcus pneumoniae [1] is 16 µg/mL; with Haemophilus influenzae it was 32 µg/mL; against Staphylococcus aureus [2], 8 µg/mL; against Streptococcus pyogenes [3], 4 µg/mL; against Staphylococcus aureus [4], 8 µg/mL; with Streptococcus pyogenes [5], 0.25 µg/mL. For the same compound, the MIC is 4 µg/mL against Moraxella catarrhalis; over 64 µg/mL in the assay with Staphylococcus aureus [6]; 8 µg/mL in the assay on Streptococcus pneumoniae [7]; 4 µg/mL with Streptococcus pyogenes [8]; 1 µg/mL with Streptococcus pneumoniae [9]; 8 µg/mL with Staphylococcus aureus [10]. This compound gave an MIC against Streptococcus pyogenes [11] of 32 µg/mL.
Turning to `CC[C@H]1OC(=O)[C@H](C)C(=O)[C@H](C)[C@@H](O[C@@H]2O[C@H](C)C[C@H](N(C)C)[C@H]2O)[C@](C)(OC[C@@H](O)CNCCNc2ccc3ncccc3c2)C[C@@H](C)NC(=O)[C@H](C)[C@@H](O)[C@]1(C)O`, the MIC against Streptococcus pneumoniae [1] was at most 0.125 µg/mL; with Haemophilus influenzae it was 0.25 µg/mL (≈ 0.3 µM); in the assay with Staphylococcus aureus [2], 0.25 µg/mL (≈ 0.3 µM); with Streptococcus pyogenes [3] it was at most 0.125 µg/mL; in the assay on Staphylococcus aureus [4], 0.25 µg/mL (≈ 0.3 µM); against Streptococcus pyogenes [5], at most 0.125 µg/mL. The MIC against Moraxella catarrhalis was at most 0.125 µg/mL; in the assay with Staphylococcus aureus [6], over 64 µg/mL; against Streptococcus pneumoniae [7], at most 0.125 µg/mL; with Streptococcus pyogenes [8], 0.5 µg/mL (≈ 0.601 µM); with Streptococcus pneumoniae [9], at most 0.125 µg/mL; with Staphylococcus aureus [10] it was at most 0.125 µg/mL. Also, the MIC against Streptococcus pyogenes [11] is 1 µg/mL (≈ 1.2 µM).

These data come from ChEMBL document CHEMBL1212927, “Synthesis and structure-activity relationships of novel 8a-aza-8a-homoerythromycin A ketolides” (2010).
